Patent publication US20240382471A1, “GLUCAGON-LIKE PEPTIDE-1 RECEPTOR MODULATORS AND USES THEREOF” (HEPAGENE THERAPEUTICS (HK) LIMITED, priority 2021, published 2024)

Legend:
GLP1R [1] = target: T1, GLP1R (Homo sapiens, UniProt P43220); assay: GLP1R cAMP assay (HTRF cAMP detection, agonist activity); format: cell-based; parameters: host or cells: Flp-In-293; settings: Flp-In-293-GLP1R cells, 30 min at 37° C., read-out: EC50 (nM) Assay 1
Method: GLP1R-mediated agonist activity was determined with a cell-based functional assay utilizing an HTRF (Homogeneous Time-Resolved Fluorescene) cAMP detection kit that measures CAMP levels in the cell. Reagents and equipment used in the assay are listed below, followed by the protocol.
• 1) Cell Line: Flp-In-293-GLP1R (constructed by Pharmaron Beijing Co., Ltd) • 2) Complete Medium: DMEM+10% FBS+1×Penicillin-Streptomycin+200 μg/mL HB • 3) Assay Buffer: 1×HBSS+20 mM HEPES+0.1% BSA+500 μM IBMX
• a) Seed Flpin-293-GLP1R cells at 20,000 cells/well into 384 well assay plate (6007680-50, PE) using complete medium. • b) Prepare 4×compound working solution with assay buffer. • c) Add 5 μL 4×compound working solution into cell plate, incubate 30 min at 37° C. • d) Dilute Eu-cAMP tracer (1/50) with lysis buffer and add 10 μl/well to assay plate. • e) Dilute Ulight-anti-cAMP (1/150) with lysis buffer and add 10 μl/well to assay plate. • f) Incubate 1 h at RT. • g) Read the plate at wavelengths of 665 nm and 615 nm on Envision 2105 plate reader.
(§1) • 3.1% Activity is calculated as follow:
% Activity=100−(Signalcmpd−SignalAve_PC)/(SignalAve_VC−SignalAve_PC)×100. • 3.2 Calculate EC50 and Plot effect-dose curve of cmpds:
Y=Bottom+(Top−Bottom)/(1+10^((Log EC50−X)*Hill Slope)) • X: log of agonist concentration; Y: % Activity.
Target sequence in this assay (P43220 24-463, species assumed): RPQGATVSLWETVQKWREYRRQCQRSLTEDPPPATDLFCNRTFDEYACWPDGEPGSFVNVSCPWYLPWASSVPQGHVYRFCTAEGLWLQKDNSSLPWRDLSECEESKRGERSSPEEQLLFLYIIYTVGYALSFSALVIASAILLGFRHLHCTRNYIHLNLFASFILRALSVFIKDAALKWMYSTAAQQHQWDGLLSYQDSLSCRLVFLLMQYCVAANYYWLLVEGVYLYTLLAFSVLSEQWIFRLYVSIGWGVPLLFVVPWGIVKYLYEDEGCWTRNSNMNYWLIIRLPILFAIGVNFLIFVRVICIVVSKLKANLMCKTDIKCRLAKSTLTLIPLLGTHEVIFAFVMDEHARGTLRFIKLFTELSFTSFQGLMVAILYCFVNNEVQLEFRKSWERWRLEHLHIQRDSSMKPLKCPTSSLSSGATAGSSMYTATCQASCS

GLP1R [2] = target: T1, GLP1R; assay: GLP1R/CRE-Luc luciferase reporter gene assay (agonist activity); format: cell-based; parameters: host or cells: HKE293 (so in the source); settings: HKE293-Human GLP1R/CRE-luc cells, 5 h at 37° C., read-out: EC50 (nM) Assay 2
Method: GLP1R-mediated agonist activity was determined with a cell-based functional assay utilizing a britelite plus luciferase reporter gene assay system. The stable cell line overexpress GLP1R and target response element. The stimulation with GLP1R agonist results in the upregulation of intracellular cAMP, which regulate the activities of cAMP-response element binding protein (CREB) and CREB-Luc. Reagents and equipment used in the assay are listed below, followed by the protocol.
• 1) Cell Line: HKE293-Human GLP1R/CRE-luc • 2) Complete Medium: DMEM+10% FBS+1×Penicillin-Streptomycin+400 μg/mL G418
• a) Seed HKE293-Human GLP1R/CRE-luc cells at 20,000 cells/well into 384 well assay plate (6007680-50, PE) using complete medium and incubate overnight. • b) Prepare 6×compound working solution with Medium. • c) Add 5 μL 6×compound working solution into cell plate, incubate 5 h at 37° C. • d) Add 20 μl britelite plus Luciferase Assay Reagent into each well of 384-well assay plate. • e) Record the luminescence value on Envision plate reader.
as §1
Target sequence in this assay (P43220 24-463): as the sequence (P43220 24-463, species assumed) above
% Activity=(Signalcmpd−SignalAve_VC)/(SignalAve_PC−SignalAve_VC)×100. • 3.2 Calculate EC50 and Plot effect-dose curve of cmpds:
Y=Bottom+(Top−Bottom)/(1+10^((Log EC50−X)*HillSlope)) • X: log of agonist concentration; Y: % Activity.

EC50 (GLP1R [1])	EC50 (GLP1R [2])	Structure (SMILES)
0.035 nM	108 nM	O=C(O)c1ccc2nc(CN3CCC4(c5cccc(OCc6ccc(C(F)(F)F)cc6F)n5)CC4C3)n(C[C@@H]3CCO3)c2c1 (stereo partly drawn) [Compound 1-8, 2-{[6-(6-{[2-fluoro-4-(trifluoromethyl)phenyl]methoxy}pyridin-2-yl)-3-azabicyclo[4.1.0]heptan-3-yl]methyl}-3-[(2S)-oxetan-2-ylmethyl]-1,3-benzodiazole-5-carboxylic acid]
0.03 nM	100 nM	O=C(O)c1ccc2nc(CN3CCC4(c5cccc(OCc6ccc(Cl)cc6F)n5)CC4C3)n(C[C@@H]3CCO3)c2c1 (stereo partly drawn) [Compound 1-5, 2-((6-(6-((4-chloro-2-fluorobenzyl)oxy)pyridin-2-yl)-3-azabicyclo[4.1.0]heptan-3-yl)methyl)-1-(((S)-oxetan-2-yl)methyl)-1H-benzo[d]imidazole-6-carboxylic acid]
0.287 nM	> 1000 nM	N#Cc1ccc(COc2cccc(N3C4CCC3CN(Cc3nc5ccc(C(=O)O)cc5n3C[C@@H]3CCO3)C4)n2)c(F)c1 [Compound 2-29, 2-((−8-(6-((4-cyano-2-fluorobenzyl)oxy)pyridin-2-yl)-3,8-diazabicyclo[3.2.1]octan-3-yl)methyl)-1-(((S)-oxetan-2-yl)methyl)-1H-benzo[d]imidazole-6-carboxylic acid]
0.029 nM	80.8 nM	N#Cc1ccc(COc2cccc(C34CCN(Cc5nc6ccc(C(=O)O)cc6n5C[C@@H]5CCO5)CC3C4)n2)c(F)c1 (stereo partly drawn) [Compound 1-1, 2-[(6-{6-[(4-cyano-2-fluorophenyl)methoxy]pyridin-2-yl}-3-azabicyclo[4.1.0]heptan-3-yl)methyl]-3-[(2S)-oxetan-2-ylmethyl]-1,3-benzodiazole-5-carboxylic acid]
2.79 nM	> 1000 nM	N#Cc1ccc(COc2cccc(N3C4CCC3CN(Cc3nc5ccc(C(=O)O)cc5n3C[C@@H]3CCO3)C4)c2)c(F)c1 [Compound 2-35, 2-((−8-(3-((4-cyano-2-fluorobenzyl)oxy)phenyl)-3,8-diazabicyclo[3.2.1]octan-3-yl)methyl)-1-(((S)-oxetan-2-yl)methyl)-1H-benzo[d]imidazole-6-carboxylic acid]
> 4 nM	> 1000 nM	N#Cc1ccc(COc2ccnc(N3C4CCC3CN(Cc3nc5ccc(C(=O)O)cc5n3C[C@@H]3CCO3)C4)c2)c(F)c1 [Compound 2-34, 2-((−8-(4-((4-cyano-2-fluorobenzyl)oxy)pyridin-2-yl)-3,8-diazabicyclo[3.2.1]octan-3-yl)methyl)-1-(((S)-oxetan-2-yl)methyl)-1H-benzo[d]imidazole-6-carboxylic acid]
0.047 nM	31.2 nM	N#Cc1ccc(COc2cccc(C34CCN(Cc5nc6c(F)cc(C(=O)O)cc6n5C[C@@H]5CCO5)CC3C4)n2)c(F)c1 (stereo partly drawn) [Compound 1-10, 2-((6-(6-((4-cyano-2-fluorobenzyl)oxy)pyridin-2-yl)-3-azabicyclo[4.1.0]heptan-3-yl)methyl)-4-fluoro-1-(((S)-oxetan-2-yl)methyl)-1H-benzo[d]imidazole-6-carboxylic acid]
	0.16 nM	CCn1cncc1Cn1c(CN2CCC3(c4nccc(OCc5ccc(C#N)cc5OC)n4)CC3C2)nc2c(OC)cc(C(=O)O)cc21 (stereo not shown) [Compound 1-45, 2-((6-(4-((4-cyano-2-methoxybenzyl)oxy)pyrimidin-2-yl)-3-azabicyclo[4.1.0]heptan-3-yl)methyl)-1-((1-ethyl-1H-imidazol-5-yl)methyl)-4-methoxy-1H-benzo[d]imidazole-6-carboxylic acid]
	9.67 nM	COc1cc(C#N)ccc1COc1cccc(C23CCN(Cc4nc5c(C(C)=O)cc(C(=O)O)cc5n4C[C@@H]4CCO4)CC2C3)n1 (stereo partly drawn) [Compound 1-20, 4-acetyl-2-((6-(6-((4-cyano-2-methoxybenzyl)oxy)pyridin-2-yl)-3-azabicyclo[4.1.0]heptan-3-yl)methyl)-1-(((S)-oxetan-2-yl)methyl)-1H-benzo[d]imidazole-6-carboxylic acid]

Continued, molecule first:

Structure (SMILES)	EC50 (GLP1R [1])	EC50 (GLP1R [2])
N#Cc1ccc(COc2cccc(C34CCN(Cc5nc6c(F)cc(C(=O)O)cc6n5C[C@@H]5CCO5)CC3C4)n2)c(F)c1 (single isomer, unassigned) [Compound 1-10-A]	0.009 nM	19.3 nM
N#Cc1ccc(COc2cccc(C34CCN(Cc5nc6ccc(C(=O)O)cc6n5C[C@@H]5CCO5)CC3C4)n2)c(F)c1 (single isomer, unassigned) [Compound 1-1-A]	0.028 nM	48.7 nM
N#Cc1ccc(COc2cccc(C34CCN(Cc5nc6c(F)cc(C(=O)O)cc6n5C[C@@H]5CCO5)CC3C4)n2)c(F)c1 (single isomer, unassigned) [Compound 1-10-B]	0.021 nM	47.6 nM
N#Cc1ccc(COc2cccc(C34CCN(Cc5nc6ccc(C(=O)O)cc6n5C[C@@H]5CCO5)CC3C4)n2)c(F)c1 (single isomer, unassigned) [Compound 1-1-B]	0.035 nM	84.9 nM
COc1cc(C#N)ccc1COc1ccnc(C23CCN(Cc4nc5c(OC)cc(C(=O)O)cc5n4C[C@@H]4CCO4)CC2C3)n1 (single isomer, unassigned) [Compound 1-38-B]		0.28 nM
